Source: patent US5475114A, “Pyrazolotriazole derivatives” (Yamanouchi Pharmaceutical Co., Ltd., priority 1991, dated 1995)
Structures can show the parent of a compound that is named as a salt.

Assays:
AII receptor [1] = target: T1, AII receptor (Oryctolagus cuniculus, UniProt P34976); experiment: in vitro: antagonistic effect on AII contraction of an excised rabbit aorta (spiral strip); assay type: cell-based; details: for IC50: negative log of concentration required to inhibit 50% of the maximum AII contraction, read-out: in vitro (pD2 ' value) (converted); for Kb: negative log of concentration required to shift AII dose-response curve to two times higher concentration, read-out: in vitro (pA2 value) (converted)
T1 construct: A portion of rabbit aorta was excised to prepare a spiral strip specimen; from tissue; host or cells: excised rabbit aorta, spiral strip
T1 sequence (P34976 1-359): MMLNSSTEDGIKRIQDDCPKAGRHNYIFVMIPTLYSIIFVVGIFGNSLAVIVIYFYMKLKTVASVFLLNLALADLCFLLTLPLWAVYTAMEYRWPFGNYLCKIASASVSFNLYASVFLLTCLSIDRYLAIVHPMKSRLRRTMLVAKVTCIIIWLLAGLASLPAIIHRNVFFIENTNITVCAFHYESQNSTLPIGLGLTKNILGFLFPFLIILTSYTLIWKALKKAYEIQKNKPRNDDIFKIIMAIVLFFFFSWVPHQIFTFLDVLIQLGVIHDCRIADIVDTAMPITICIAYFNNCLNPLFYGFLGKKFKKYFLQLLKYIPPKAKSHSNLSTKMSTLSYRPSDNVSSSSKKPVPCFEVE
Protocol: The AII receptor-blocking activity of the compound of the present invention was measured based on its antagonistic effect (in vitro) on AII contraction of an excised rabbit aorta and its inhibitory effect (in vivo) on AII-caused pressor reaction in a spinal cord-broken rat.
A portion of rabbit aorta was excised to prepare a spiral strip specimen which was subsequently hung in Krebs-Hensseleit solution. This spiral strip specimen causes a dose-dependent contraction when AII is added to the Krebs-Hensseleit solution. Since a drug having AII receptor-blocking activity causes shifting of the dose-response curve of the AII-based contraction to the high concentration side or reduces maximum contraction by AII, a shifted width of the dose-response curve before and after the addition of each test drug or a maximum contraction inhibiting ratio was calculated.

AII receptor [2] = experiment: in vivo: inhibitory effect on AII-caused pressor reaction in a spinal cord-broken rat; details: dose which decreases 30 mm Hg of blood pressure after AII administration (100 ng/kg/min continuous iv)
Protocol: The AII receptor-blocking activity of the compound of the present invention was measured based on its antagonistic effect (in vitro) on AII contraction of an excised rabbit aorta and its inhibitory effect (in vivo) on AII-caused pressor reaction in a spinal cord-broken rat. In vivo test: An in vivo test was carried out by inserting cannulae into an aorta and a vein of a spinal cord-broken rat under artificial respiration. […] Since a drug having AII receptor-blocking activity inhibits the AII-caused continuous blood pressure increase in a dose-dependent manner, the AII antagonistic function of the test drug was examined based on the decreasing width of blood pressure after administration of the test drug.

Row | SMILES | IC50 (AII receptor [1]) [nM] | Kb (AII receptor [1]) [nM] | in vivo (IC30 mmHg (mg/kg, iv)) (AII receptor [2]) [mg/kg]
1 | CCOC(=O)OC(C)OC(=O)c1c(CC)c2nc(CC)nn2n1Cc1ccc(-c2ccccc2-c2nnn[nH]2)cc1 (stereo not drawn) [Example 105, 1-ethoxycarbonyloxyethyl 2,7-diethyl-5-[[2'-(tetrazol-5-yl)biphenyl-4-yl]methyl]-5H-pyrazolo[1,5-b][1,2,4]triazole-6-carboxylate] | 0.933 |  | 
2 | CCc1nc2c(CC)c(C(=O)OC)n(Cc3ccc(-c4ccccc4-c4nn[nH]n4)cc3)n2n1 [Example 102, methyl 2,7-diethyl-5-[[2'-(tetrazol-5-yl)biphenyl-4-yl]methyl]-5H-pyrazolo[1,5-b][1,2,4]triazole-6-carboxylate sodium salt] |  | 0.724 | 
3 | CCc1nc2c(CC)c(CO)n(Cc3ccc(-c4ccccc4-c4nn[nH]n4)cc3)n2n1 [Example 98] |  | 0.955 | 0.02
4 | CCCCc1nc(Cl)c(CO)n1Cc1ccc(-c2ccccc2-c2nn[nH]n2)cc1 [Dup 753, reference compound] |  |  | 0.1
5 | CCc1nc2c(C(C)C)cn(Cc3ccc(-c4ccccc4-c4nnn[nH]4)cc3)n2n1 [Example 57, 2-ethyl-7-isopropyl-5-[[2'-(tetrazol-5-yl)biphenyl-4-yl]methyl]-5H-pyrazolo[1,5-b][1,2,4]triazole] |  | 3.02 | 0.04
6 | CCc1nc2c(CC)cn(Cc3ccc(-c4ccccc4-c4nnn[nH]4)cc3)n2n1 [Example 52, 2,7-diethyl-5-[[2'-(tetrazol-5-yl)biphenyl-4-yl]methyl]-5H-pyrazolo[1,5-b][1,2,4]triazole] |  | 2.24 | 0.025
7 | CCc1nc2c(CC)c(COC)n(Cc3ccc(-c4ccccc4-c4nnn[nH]4)cc3)n2n1 [Example 95, 2,7-diethyl-6-methoxymethyl-5-[[2'-(tetrazol-5-yl)biphenyl-4-yl]methyl]-5H-pyrazolo[1,5-b][1,2,4]triazole] |  | 1.41 | 0.06
8 | CCc1cn(Cc2ccc(-c3ccccc3-c3nnn[nH]3)cc2)n2nc(C)nc12 [Example 53, 7-ethyl-2-methyl-5-[[2'-(tetrazol-5-yl)biphenyl-4-yl]methyl]-5H-pyrazolo[1,5-b][1,2,4]triazole] |  | 3.16 | 0.01
9 | CCc1nc2c(CC)c(C=O)n(Cc3ccc(-c4ccccc4-c4nn[nH]n4)cc3)n2n1 [Example 96, 2,7-diethyl-5-[[2'-(tetrazol-5-yl)biphenyl-4-yl]methyl]-5H-pyrazolo[1,5-b][1,2,4]triazole-6-carboxyaldehyde] |  | 0.692 | 0.02
10 | CCc1nc2c(CC)c(C(=O)O)n(Cc3ccc(-c4ccccc4-c4nn[nH]n4)cc3)n2n1 [Example 99, 2,7-diethyl-5-[[2'-(tetrazol-5-yl)biphenyl-4-yl]methyl]-5H-pyrazolo[1,5-b][1,2,4]'triazole-6-carbonic acid] | 0.49 |  | 
11 | CCc1nc2c(CC)cn(Cc3ccc(-c4ccccc4-c4nn[nH]n4)cc3)n2n1 [Example 100, 2,7-diethyl-5-[[2'-(tetrazol-5-yl)biphenyl-4-yl]methyl]-5H-pyrazolo[1,5-b][1,2,4]triazole potassium salt] |  | 1.55 | 
12 | CCOC(=O)c1c(CC)c2nc(CC)nn2n1Cc1ccc(-c2ccccc2-c2nnn[nH]2)cc1 [Example 101, ethyl 2,7-diethyl-5-[[2'-(tetrazol-5-yl)biphenyl-4-yl]methyl]-5H-pyrazolo[1,5-b][1,2,4] triazole-6-carboxylate] |  | 0.562 | 
